Test results taken from US20250092065A1, “2-(INDAZOL-5-YL)-6-(PIPERIDIN-4-YL)-1,7-NAPHTHYRIDINE DERIVATIVES AND RELATED COMPOUNDS AS MODULATORS FOR SPLICING NUCLEIC ACIDS AND FOR THE TREATMENT OF PROLIFERATIVE DISEASES” (REMIX THERAPEUTICS INC., priority 2022, published 2025).
Like-named read-outs stand apart in the source and are kept apart here.

Columns and labels:
HTT mRNA = test: RT-qPCR splicing assay, HTT mRNA canonical (CJ) and alternative (AJ) junction; assay type: cell-based, human
Procedure: (§1) Compounds described herein were used to modulate RNA transcript abundance in cells. The expression of a target mRNA was measured by detecting the formation of an exon-exon junction in the canonical transcript (CJ). A compound mediated exon-inclusion event was detected by observing an increase in formation of a new junction with an alternative exon (AJ). Real-time qPCR assays were used to detect these splicing switches and interrogate the potency of various compounds towards different target genes. A high-throughput real time quantitative PCR (RT-qPCR) assay was developed to measure these two isoforms of the mRNA (CJ and AJ) for exemplary genes, such as HTT, SMN2, and MYB, together with a control housekeeping gene, GAPDH or GUSB or PPIA, used for normalization. Briefly, the A673 or K562 cell line was treated with various compounds described herein (e.g., compounds of Formula (I)). After treatment, the levels of the HTT, MYB, or SMN2 mRNA targets were determined from each sample of cell lysate by cDNA synthesis followed by qPCR.
(§2) The A673 cell line was cultured in DMEM with 10% FBS. Cells were diluted with full growth media and plated in a 96-well plate (15,000 cells in 100 ul media per well). The plate was incubated at 37° C. with 5% CO2 for 24 hours to allow cells to adhere. An 11-point 3-fold serial dilution of the compounds was made in DMSO then diluted in media in an intermediate plate. Compounds were transferred from the intermediate plate to the cell plate with the top dose at a final concentration of 10 uM in the well. Final DMSO concentration was kept at or below 0.25%. The cell plate was returned to the incubator at 37° C. with 5% CO2 for an additional 24 hours.
(§3) The K562 cell line was cultured in IMDM with 10% FBS. For K562, cells were diluted with full growth media and plated in either a 96-well plate (50,000 cells in 50 uL media per well) or a 384-well plate (8,000-40,000 cells in 45 uL media per well). An 11-point 3-fold serial dilution of the compounds were made in DMSO then diluted in media in an intermediate plate. Compound was transferred from the intermediate plate to the cell plate with the top dose at a final concentration of 10 uM in the well. Final DMSO concentration was kept at or below 0.25%. Final volume was 100 uL for 96-well plate and 50 uL for 384-well plate. The cell plate was then placed in an incubator at 37° C. with 5% CO2 for 24 hours.
(§4) The cells were then gently washed with 50 uL-100 uL cold PBS before proceeding to addition of lysis buffer. 30 uL-50 μL of room temperature lysis buffer with DNAse I (and optionally RNAsin) was added to each well. Cells were shaken/mixed thoroughly at room temperature for 5-10 minutes for lysis to take place and then 3 uL-5 μL of room temperature stop solution was added and wells were shaken/mixed again. After 2-5 minutes, the cell lysate plate was transferred to ice for RT-qPCR reaction setup. The lysates could also be frozen at −80° C. for later use.
(§5) In some cases, a direct lysis buffer was used. An appropriate volume of 3× lysis buffer (10 mM Tris, 150 mM NaCl, 1.5%-2.5% Igepal and 0.1-1 U/uL RNAsin, pH 7.4) was directly added to either K562 or A673 cells in media and mixed by pipetting 3 times. The plates were then incubated at room temperature with shaking/rocking for 20-50 minutes to allow for lysis to take place. After this time, the cell lysate plate was transferred to ice to set up for the RT-qPCR reactions. The lysates could also be frozen at −80° C. for later use.
(§6) To set up 10 uL RT-qPCR reactions, cell lysates were transferred to 384-well qPCR plates containing the master mix according to the table below. The plates were sealed, gently vortexed, and spun down before the run. The volumes were adjusted accordingly in some instances where the reaction was carried in 20 μL. The table below summarizes the components of the RT-qPCR reactions:
(§7) The RT-qPCR reaction was performed using a QuantStudio (ThermoFisher) under the following fast cycling conditions. […]

SMN2 mRNA = test: RT-qPCR splicing assay, SMN2 mRNA; assay type: cell-based, human; conditions: canonical junction qPCR panel, Table 4, read-out: SMN2 IC50 (decrease in CJ mRNA levels)
Procedure: as §1, §2, §3, §4, §5, §6, §7

K562 cells = test: Cell Titer Glo 2.0 cell viability (toxicity) assay, K562; conditions: 500 cells/well, 72 hours
MYB mRNA = test: RT-qPCR splicing assay, MYB mRNA canonical (CJ) and alternative (AJ) junction; assay type: cell-based, human
Procedure: as §1, §2, §3, §4, §5, §6, §7

[1] = Homo sapiens, RT-qPCR, HTT alternative junction mRNA increase, read-out: HTT AJ (increase in alternative junction mRNA, AC50)
[2] = Homo sapiens, RT-qPCR, HTT canonical junction mRNA decrease, read-out: HTT CJ (decrease in canonical junction mRNA, IC50)
[3] = Homo sapiens, canonical junction qPCR panel, Table 4, read-out: HTT IC50 (decrease in CJ mRNA levels)
[4] = Homo sapiens, RT-qPCR, MYB alternative junction mRNA increase, read-out: MYB AJ (increase in alternative junction mRNA, AC50)
[5] = Homo sapiens, RT-qPCR, MYB canonical junction mRNA decrease, read-out: MYB CJ (decrease in canonical junction mRNA, IC50)
[6] = Homo sapiens, canonical junction qPCR panel, Table 4, read-out: MYB IC50 (decrease in CJ mRNA levels)

Compound	AC50 (HTT mRNA; [1])	IC50 (HTT mRNA; [2])	IC50 (HTT mRNA; [3])	IC50 (SMN2 mRNA; Homo sapiens)	Effect of Exemplary Compounds on Cell Viability, K562 (K562 cells)	AC50 (MYB mRNA; [4])	IC50 (MYB mRNA; [5])	IC50 (MYB mRNA; [6])	AC50 (HTT mRNA; Homo sapiens, HTT alternative junction mRNA, RT-qPCR, read-out: HTT AJ (increase in AJ mRNA, AC50))	IC50 (HTT mRNA; Homo sapiens, HTT canonical junction mRNA, RT-qPCR, read-out: HTT CJ (decrease in CJ mRNA levels, IC50))	AC50 (MYB mRNA; Homo sapiens, MYB alternative junction mRNA, RT-qPCR, read-out: MYB AJ (increase in AJ mRNA, AC50))	IC50 (MYB mRNA; Homo sapiens, MYB canonical junction mRNA, RT-qPCR, read-out: MYB CJ (decrease in CJ mRNA levels, IC50))	AC50 (HTT mRNA; HTT alternative junction mRNA, RT-qPCR, read-out: HTT AJ (increase in AJ mRNA, AC50))	IC50 (HTT mRNA; HTT canonical junction mRNA, RT-qPCR, read-out: HTT CJ (decrease in CJ mRNA levels, IC50))	IC50 (HTT mRNA; canonical junction qPCR panel, Table 4, read-out: HTT IC50 (decrease in CJ mRNA levels))	IC50 (SMN2 mRNA)	AC50 (MYB mRNA; MYB alternative junction mRNA, RT-qPCR, read-out: MYB AJ (increase in AJ mRNA, AC50))	IC50 (MYB mRNA; MYB canonical junction mRNA, RT-qPCR, read-out: MYB CJ (decrease in CJ mRNA levels, IC50))	IC50 (MYB mRNA; canonical junction qPCR panel, Table 4, read-out: MYB IC50 (decrease in CJ mRNA levels))
C[C@H]1CN(c2ccc3nc(-c4cc(F)c5nc(CO)cn5c4)ncc3c2)C[C@H](C)N1 (single isomer, unassigned) [Compound 828]	1 to 10 µM	0.1 to 1 µM	0.1 to 1 µM	< 0.1 µM	B (B represents 100-1000 nM)	< 0.1 µM	< 0.1 µM	< 0.1 µM	–	–	–	–	–	–	–	–	–	–	–
Cn1cc2cc(-c3ccc4nc(N5CCN6CCCC6C5)ccc4n3)c(O)cc2n1 (stereo not shown) [Compound 134]	–	–	1 to 10 µM	< 0.1 µM	C (C represents 1000-9999 nM)	–	–	0.1 to 1 µM	1 to 10 µM	1 to 10 µM	0.1 to 1 µM	0.1 to 1 µM	–	–	–	–	–	–	–
Cc1c(O)c(-c2ccc3nc(N4CCC(NC(C)(C)C)C4)ccc3n2)cc2cn(C)nc12 (stereo not shown) [Compound 275]	–	–	–	–	–	–	–	–	–	–	–	–	< 0.1 µM	< 0.1 µM	< 0.1 µM	< 0.1 µM	< 0.1 µM	< 0.1 µM	< 0.1 µM
Cc1cn2cc(-c3ncc4cc(N5C[C@H](C)N[C@@H](C)C5)ccc4n3)ccc2n1 [Compound 827]	1 to 10 µM	1 to 10 µM	1 to 10 µM	< 0.1 µM	B (B represents 100-1000 nM)	0.1 to 1 µM	0.1 to 1 µM	0.1 to 1 µM	–	–	–	–	–	–	–	–	–	–	–
C[C@H]1CN(c2ccc3nc(-c4cc(F)c5nc(CF)cn5c4)ncc3c2)C[C@H](C)N1 [Compound 829, 6-[(3S,5S)-3,5-dimethylpiperazin-1-yl]-2-[8-fluoro-2-(fluoromethyl)imidazo[1,2-a]pyridin-6-yl]quinazoline]	0.1 to 1 µM	0.1 to 1 µM	0.1 to 1 µM	< 0.1 µM	B (B represents 100-1000 nM)	0.1 to 1 µM	< 0.1 µM	< 0.1 µM	–	–	–	–	–	–	–	–	–	–	–
COc1cc(-c2ncc3cc(N4C[C@@H](C)N[C@@H](C)C4)ccc3n2)cn2cc(C)nc12 [Compound 830]	> 10 µM	1 to 10 µM	1 to 10 µM	< 0.1 µM	B (B represents 100-1000 nM)	0.1 to 1 µM	0.1 to 1 µM	0.1 to 1 µM	–	–	–	–	–	–	–	–	–	–	–
Cc1cn2cc(-c3ncc4cc(N5C[C@@H](C)N[C@@H](C)C5)ccc4n3)cc(C#N)c2n1 [Compound 831]	1 to 10 µM	0.1 to 1 µM	0.1 to 1 µM	< 0.1 µM	B (B represents 100-1000 nM)	< 0.1 µM	< 0.1 µM	< 0.1 µM	–	–	–	–	–	–	–	–	–	–	–
Cc1cn2cc(-c3ncc4cc(N5C[C@@H](C)N[C@@H](C)C5)ccc4n3)ccc2n1 [Compound 832]	> 10 µM	> 10 µM	> 10 µM	< 0.1 µM	C (C represents 1000-9999 nM)	1 to 10 µM	0.1 to 1 µM	0.1 to 1 µM	–	–	–	–	–	–	–	–	–	–	–
C[C@@H]1CN(c2ccc3nc(-c4cc(F)c5nncn5c4)ncc3c2)C[C@H](C)N1 [Compound 833]	1 to 10 µM	1 to 10 µM	1 to 10 µM	0.1 to 1 µM	C (C represents 1000-9999 nM)	1 to 10 µM	1 to 10 µM	1 to 10 µM	–	–	–	–	–	–	–	–	–	–	–
C[C@@H]1CN(c2ccc3nc(-c4cc(F)c5nc(CO)cn5c4)ncc3c2)C[C@H](C)N1 [Compound 834, (6-{6-[(3R,5S)-3,5-dimethylpiperazin-1-yl]quinazolin-2-yl}-8-fluoroimidazo[1,2-a]pyridin-2-yl)methanol]	1 to 10 µM	1 to 10 µM	1 to 10 µM	< 0.1 µM	C (C represents 1000-9999 nM)	0.1 to 1 µM	0.1 to 1 µM	0.1 to 1 µM	–	–	–	–	–	–	–	–	–	–	–
Cc1cn2cc(-c3ncc4cc(N5C[C@@H](C)N[C@@H](C)C5)ccc4n3)cc(Cl)c2n1 [Compound 896]	–	–	–	–	B (B represents 100-1000 nM)	–	–	–	–	–	–	–	–	–	–	–	–	–	–
Cn1cc2cc(-c3ncc4cc(N5CC[C@H](NC(C)(C)C)C5)ccc4n3)c(O)c(F)c2n1 [Compound 929]	0.1 to 1 µM	1 to 10 µM	1 to 10 µM	< 0.1 µM	–	< 0.1 µM	< 0.1 µM	< 0.1 µM	–	–	–	–	–	–	–	–	–	–	–
Cn1cc2cc(-c3ncc4cc(N5CC[C@@H](NC(C)(C)C)C5)ccc4n3)c(O)c(F)c2n1 [Compound 930]	> 10 µM	1 to 10 µM	1 to 10 µM	< 0.1 µM	–	0.1 to 1 µM	0.1 to 1 µM	0.1 to 1 µM	–	–	–	–	–	–	–	–	–	–	–
